Patent publication US20100311729A1, “Substituted imidazopyridazines and pyrrolopyrimidines as lipid kinase inhibitors” (priority 2007, published 2010)

Tests used:
Format in all cases: biochemical
PI3K alfa = biological target: T1, PI3K alfa (Homo sapiens, UniProt P42336); assay: PI3 kinase assay (Kinase-Glo luminescence), PI3K alfa; details: Enzymatic Data; read-out: PI3K alfa IC50 [umol]
T1 construct: for the p110-a subunit (with a deletion of the first 20 amino acids); His tag (C); made in house; host or cells: baculovirus; Tn5 (Trichoplusia ni) or TiniPro insect cells
Experimental: (§1) In a more preferred assay, the kinase reaction is performed in a final volume of 10 μL per well of a low volume non binding CORNING, 384 well black plate (Cat. No. #3676). The final concentrations of ATP and phosphatidyl inositol (PI) in the assay are 1 μM and 10 μg/mL respectively. The reaction is started by the addition of ATP.
(§2) The components of the assay are added per well as follows:
(§3) 50 nL test compounds in 90% DMSO per well, in columns 1-20, 8 concentrations (1/3 and 1/3.33 serial dilution step) in single. • Low control: 50 nL of 90% DMSO in half the wells of columns 23-24 (0.45% in final). • High control: 50 nL of reference compound (e.g. compound of Example 7 in WO 2006/122806, incorporated by reference hereinin that regard) in the other half of columns 23-24 (2.5 μM in final). • Standard: 50 nL of reference compound as just mentioned diluted as the test compounds in columns 21-22 • 20 mL ‘buffer’ are prepared per assay: • 200 μL of 1M TRIS HCl pH7.5 (10 mM in final) • 60 μL of 1M MgCl2 (3 mM in final) • 500 μL of 2M NaCl (50 mM in final) • 100 μL of 10% CHAPS (0.05% in final) • 200 μL of 100 mM DTT (1 mM in final) • 18.94 mL of nanopure water • 10 mL ‘PI’ are prepared per assay: • 200 μL of 1 mg/ml L-alpha-Phosphatidylinositol (Liver Bovine, Avanti Polar Lipids Cat. No. 840042C MW=909.12) prepared in 3% OctylGlucoside (10 μg/ml in final) • 9.8 mL of ‘buffer’ • 10 mL ‘ATP’ are prepared per assay: • 6.7 μL of 3 mM stock of ATP giving a final concentration of 1 μM per well • 10 mL of ‘buffer’ • 2.5 mL of each PI3K construct are prepared per assay in ‘PI’ with the following final concentration : • 10 nM PI3K alfa B-1075 • 25 nM beta BV-949 • 10 nM delta BV-1060 • 150 nM gamma BV-950 • 5 μL of ‘PI/PI3K’ are added per well. • 5 μl ‘ATP’ are added per well to start the reaction. • The plates are then incubated at room temperature for 60 minutes (alfa, beta, delta) or 120 minutes (gamma). • The reaction is terminated by the addition of 10 μL Kinase-Glo (Promega Cat. No. #6714). • The assay plates are read after 10 minutes in Synergy 2 reader (BioTek, Vermont USA) with an integration time of 100 milliseconds and sensitivity set to 191. • Output : The High control is around 60'000 counts and the Low control is 30'000 or lower • This luminescence assay gives a useful Z′ ratio between 0.4 and 0.7
(§4) […] is determined by a four parameter curve fitting routine that comes aloneg with “excel fit”. A 4 Parameter logistic equation is used to calculate IC50 values (IDBS XLfit) of the percentage inhibition of each compound at 8 concentrations (usually 10, 3.0, 1.0, 0.3, 0.1, 0.030, 0.010 and […]). Alternatively, IC50 values are calculated using idbsXLfit model 204, which is a 4 parameter logistic model.
(§5) Testing with the following kinases in the test system mentioned above, with the kinases given in the following tables, the following IC 50 data can be obtained: […]

PI3K gamma = biological target: T2, PI3K gamma (Homo sapiens, UniProt P48736); assay: PI3 kinase assay (Kinase-Glo luminescence), PI3K gamma; details: Enzymatic Data; read-out: PI3K gamma IC50 [umol]
T2 construct: PI3Kγ BV-950 p110g(D144aa)-C-Term His Tag; His tag (C); made in house; host or cells: construct from the Roger Williams lab (MRC LMB) in pVL1393; baculovirus; Tn5 (Trichoplusia ni) or TiniPro insect cells
Experimental: as §1, §2, §4

PI3K delta = biological target: T3, PI3K delta (Homo sapiens, UniProt O00329); assay: PI3 kinase assay (Kinase-Glo luminescence), PI3K delta; details: Enzymatic Data; read-out: PI3K delta IC50 [umol]
T3 construct: for the full-length p110-d subunit are generated and fused by overlapping PCR; His tag (C); made in house; host or cells: baculovirus; Tn5 (Trichoplusia ni) or TiniPro insect cells
Experimental: as §1, §2, §3, §4, §5

PI3K beta = biological target: T4, PI3K beta (Homo sapiens, UniProt P42338); assay: PI3 kinase assay (Kinase-Glo luminescence), PI3K beta; details: Enzymatic Data; read-out: PI3K beta IC50 [umol]
T4 construct: for the full-length p110-b subunit are generated and fused by overlapping PCR; His tag (C); made in house; host or cells: baculovirus; Tn5 (Trichoplusia ni) or TiniPro insect cells
Experimental: as §1, §2, §3, §4, §5

T4 sequence (P42338 with tags, fused parts or gaps limits assumed): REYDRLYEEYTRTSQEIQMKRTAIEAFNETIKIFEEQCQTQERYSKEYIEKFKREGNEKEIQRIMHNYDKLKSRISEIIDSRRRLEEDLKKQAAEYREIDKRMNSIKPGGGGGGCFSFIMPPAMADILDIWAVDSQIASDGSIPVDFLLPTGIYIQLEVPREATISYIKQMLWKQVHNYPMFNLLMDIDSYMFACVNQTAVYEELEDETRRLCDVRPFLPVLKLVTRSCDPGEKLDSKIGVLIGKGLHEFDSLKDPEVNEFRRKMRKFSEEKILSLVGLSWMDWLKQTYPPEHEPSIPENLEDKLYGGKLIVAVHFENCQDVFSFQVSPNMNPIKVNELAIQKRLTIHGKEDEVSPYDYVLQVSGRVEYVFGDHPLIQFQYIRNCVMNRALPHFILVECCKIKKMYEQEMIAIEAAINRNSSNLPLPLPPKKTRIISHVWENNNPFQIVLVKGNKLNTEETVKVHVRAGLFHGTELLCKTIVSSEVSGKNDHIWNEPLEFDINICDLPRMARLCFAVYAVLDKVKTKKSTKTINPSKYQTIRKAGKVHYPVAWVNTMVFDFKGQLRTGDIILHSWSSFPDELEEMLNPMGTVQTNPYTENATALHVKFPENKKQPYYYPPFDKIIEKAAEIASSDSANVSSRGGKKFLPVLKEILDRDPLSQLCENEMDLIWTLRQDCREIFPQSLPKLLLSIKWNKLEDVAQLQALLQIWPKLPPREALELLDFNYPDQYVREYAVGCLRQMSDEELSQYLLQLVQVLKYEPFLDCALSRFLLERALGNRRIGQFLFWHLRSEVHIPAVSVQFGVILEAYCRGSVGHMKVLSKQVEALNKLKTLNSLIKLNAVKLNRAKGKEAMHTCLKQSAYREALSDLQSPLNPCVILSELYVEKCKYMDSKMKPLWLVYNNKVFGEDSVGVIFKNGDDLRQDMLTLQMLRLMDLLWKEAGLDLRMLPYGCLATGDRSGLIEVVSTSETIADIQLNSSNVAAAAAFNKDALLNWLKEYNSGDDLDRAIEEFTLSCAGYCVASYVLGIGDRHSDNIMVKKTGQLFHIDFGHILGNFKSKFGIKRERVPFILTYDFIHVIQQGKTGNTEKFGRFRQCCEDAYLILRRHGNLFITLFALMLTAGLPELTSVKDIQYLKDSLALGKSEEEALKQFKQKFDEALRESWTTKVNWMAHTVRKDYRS
T1 sequence (P42336 with tags, fused parts or gaps limits assumed): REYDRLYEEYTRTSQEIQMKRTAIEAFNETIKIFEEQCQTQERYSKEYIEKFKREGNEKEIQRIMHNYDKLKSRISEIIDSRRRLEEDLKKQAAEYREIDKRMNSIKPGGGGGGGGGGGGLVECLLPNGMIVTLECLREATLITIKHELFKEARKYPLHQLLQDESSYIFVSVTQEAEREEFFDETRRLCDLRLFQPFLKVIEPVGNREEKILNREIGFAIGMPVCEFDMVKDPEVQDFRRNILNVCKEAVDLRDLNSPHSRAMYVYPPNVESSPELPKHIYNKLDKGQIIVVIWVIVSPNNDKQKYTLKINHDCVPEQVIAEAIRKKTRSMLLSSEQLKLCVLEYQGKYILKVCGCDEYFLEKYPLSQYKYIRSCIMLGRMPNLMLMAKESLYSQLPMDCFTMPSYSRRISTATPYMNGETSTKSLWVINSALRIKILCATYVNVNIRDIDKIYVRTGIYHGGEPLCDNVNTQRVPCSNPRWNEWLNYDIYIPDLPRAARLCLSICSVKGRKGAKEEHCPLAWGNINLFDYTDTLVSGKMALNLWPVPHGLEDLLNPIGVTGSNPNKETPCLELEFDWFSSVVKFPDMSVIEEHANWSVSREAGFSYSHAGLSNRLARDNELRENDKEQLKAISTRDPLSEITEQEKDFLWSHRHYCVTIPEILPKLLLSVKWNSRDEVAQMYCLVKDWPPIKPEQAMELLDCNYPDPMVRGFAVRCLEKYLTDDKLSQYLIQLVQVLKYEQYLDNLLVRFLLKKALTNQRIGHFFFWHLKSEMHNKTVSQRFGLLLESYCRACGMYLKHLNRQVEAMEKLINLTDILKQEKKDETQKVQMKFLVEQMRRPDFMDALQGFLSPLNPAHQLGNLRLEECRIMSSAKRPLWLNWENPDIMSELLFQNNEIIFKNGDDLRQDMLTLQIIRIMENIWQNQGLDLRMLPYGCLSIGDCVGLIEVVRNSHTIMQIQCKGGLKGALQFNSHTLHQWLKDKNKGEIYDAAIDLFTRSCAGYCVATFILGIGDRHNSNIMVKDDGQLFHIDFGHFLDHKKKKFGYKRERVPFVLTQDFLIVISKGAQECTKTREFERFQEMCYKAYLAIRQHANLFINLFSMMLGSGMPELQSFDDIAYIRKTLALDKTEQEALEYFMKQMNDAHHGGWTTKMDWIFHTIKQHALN
T3 sequence (O00329 with tags, fused parts or gaps limits assumed): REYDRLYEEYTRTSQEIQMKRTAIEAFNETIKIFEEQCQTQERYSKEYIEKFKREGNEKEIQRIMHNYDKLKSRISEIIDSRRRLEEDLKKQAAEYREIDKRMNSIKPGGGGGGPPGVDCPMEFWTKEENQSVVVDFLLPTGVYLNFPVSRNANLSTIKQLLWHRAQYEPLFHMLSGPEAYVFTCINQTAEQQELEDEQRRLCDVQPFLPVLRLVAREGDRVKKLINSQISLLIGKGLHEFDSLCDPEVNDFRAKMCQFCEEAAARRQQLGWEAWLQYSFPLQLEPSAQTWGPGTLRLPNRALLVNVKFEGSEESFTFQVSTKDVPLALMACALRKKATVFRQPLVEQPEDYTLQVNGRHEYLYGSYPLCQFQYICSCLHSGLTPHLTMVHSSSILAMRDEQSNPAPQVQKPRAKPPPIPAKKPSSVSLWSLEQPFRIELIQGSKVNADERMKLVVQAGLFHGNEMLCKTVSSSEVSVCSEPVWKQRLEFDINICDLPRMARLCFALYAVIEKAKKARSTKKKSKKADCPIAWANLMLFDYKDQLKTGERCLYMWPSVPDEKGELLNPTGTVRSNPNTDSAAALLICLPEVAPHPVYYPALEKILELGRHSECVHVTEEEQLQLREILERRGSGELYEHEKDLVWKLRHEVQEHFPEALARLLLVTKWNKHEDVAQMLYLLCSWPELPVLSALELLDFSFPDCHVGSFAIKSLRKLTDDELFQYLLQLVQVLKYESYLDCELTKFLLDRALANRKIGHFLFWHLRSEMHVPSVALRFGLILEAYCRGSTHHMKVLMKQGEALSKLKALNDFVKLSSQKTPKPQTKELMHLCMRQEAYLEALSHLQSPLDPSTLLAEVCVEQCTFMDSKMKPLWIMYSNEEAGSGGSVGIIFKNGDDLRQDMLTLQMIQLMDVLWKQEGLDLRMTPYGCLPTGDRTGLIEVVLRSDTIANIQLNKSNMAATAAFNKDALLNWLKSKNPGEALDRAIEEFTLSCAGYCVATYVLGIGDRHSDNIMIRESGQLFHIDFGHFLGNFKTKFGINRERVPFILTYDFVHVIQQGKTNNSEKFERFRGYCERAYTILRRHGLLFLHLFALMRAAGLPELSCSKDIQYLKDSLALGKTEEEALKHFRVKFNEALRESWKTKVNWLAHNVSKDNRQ
T2 sequence (P48736 144-1102 limits assumed): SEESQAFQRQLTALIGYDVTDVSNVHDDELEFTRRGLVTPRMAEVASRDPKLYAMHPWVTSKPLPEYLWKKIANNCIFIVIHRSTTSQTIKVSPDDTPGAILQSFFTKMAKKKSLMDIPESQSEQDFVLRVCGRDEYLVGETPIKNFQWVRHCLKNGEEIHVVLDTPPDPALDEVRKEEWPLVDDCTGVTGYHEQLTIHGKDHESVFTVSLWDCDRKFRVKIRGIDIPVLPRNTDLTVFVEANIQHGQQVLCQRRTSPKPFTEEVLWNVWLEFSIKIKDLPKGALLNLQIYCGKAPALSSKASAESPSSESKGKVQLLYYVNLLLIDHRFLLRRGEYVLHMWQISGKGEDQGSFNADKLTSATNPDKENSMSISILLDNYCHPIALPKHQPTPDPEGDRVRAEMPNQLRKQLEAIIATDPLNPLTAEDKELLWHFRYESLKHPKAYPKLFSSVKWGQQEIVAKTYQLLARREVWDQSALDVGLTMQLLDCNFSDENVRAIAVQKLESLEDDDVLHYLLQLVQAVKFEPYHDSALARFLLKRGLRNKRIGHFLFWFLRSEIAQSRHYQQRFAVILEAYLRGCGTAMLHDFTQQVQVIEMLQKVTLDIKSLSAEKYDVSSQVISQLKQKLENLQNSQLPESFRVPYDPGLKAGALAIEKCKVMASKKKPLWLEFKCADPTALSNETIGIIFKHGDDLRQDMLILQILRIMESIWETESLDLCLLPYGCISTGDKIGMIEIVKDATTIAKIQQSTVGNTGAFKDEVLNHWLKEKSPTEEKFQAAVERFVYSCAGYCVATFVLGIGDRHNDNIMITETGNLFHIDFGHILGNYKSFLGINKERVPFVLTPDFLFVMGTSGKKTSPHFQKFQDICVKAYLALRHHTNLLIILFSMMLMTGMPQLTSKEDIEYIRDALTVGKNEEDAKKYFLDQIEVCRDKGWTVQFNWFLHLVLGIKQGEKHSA

Row | SMILES | IC50 (PI3K alfa) [nM] | IC50 (PI3K gamma) [nM] | IC50 (PI3K delta) [nM] | IC50 (PI3K beta) [nM]
1 | Nc1ncc(-c2ccc3ncc(-c4ccc(C(=O)NCCN5CCOCC5)cc4)n3n2)cc1C(F)(F)F [Example 80, 4-[6-(6-Amino-5-trifluoro-methyl-pyridin-3-yl)-imidazo [1,2-b]pyridazin-3-yl]-N-(2-morpholin-4-yl-ethyl)-benzamide] | 15 | 1160 | 57 | 210
2 | COc1cc(-c2cnc3ccc(-c4cnc(N)c(C(F)(F)F)c4)nn23)ccc1C(=O)N1CCN(c2ccccn2)CC1 [Example 120, {4-[6-(6-Amino-5-trifluoro-methyl-pyridin-3-yl)-imidazo [1,2-b]pyridazin-3-yl]-2-methoxy-phenyl}-(4-pyridin-2-yl-piperazin-1-yl)-methanone] | 16 | 757 | 25 | 389
3 | COC(=O)NCCCOc1ccc(-c2ccc3ncc(-c4cnc(N)c(C(F)(F)F)c4)n3n2)cc1OC [Example 50, (3-{4-[3-(6-Amino-5-trifluoromethyl-pyridin-3-yl)-imidazo[1,2-b]pyridazin-6yl]-2-methoxy-phenoxy}-propyl)-carbamic acid methyl ester] | 165 | 2740 | 1010 | 2190
4 | Nc1ncc(-c2ccc3ncc(-c4cnc5[nH]ccc5c4)n3n2)cc1C(F)(F)F [Example 41, 5-[3-(1H- Pyrrolo [2,3-b]pyridin-5-yl)-imidazo [1,2-b]pyridazin-6-yl]-3-trifluoro-methyl-pyridin-2-ylamine] | 264 | 1600 | 207 | 212
5 | CC(=O)NCCOc1ccc(-c2ccc3ncc(-c4cnc(N)c(C(F)(F)F)c4)n3n2)cc1 [Example 75, N-(2-{4-[3-(6-Amino-5-trifluoro-methyl-pyridin-3-yl)-imidazo [1,2-b]pyridazin-6-yl]-phenoxy}-ethyl)-acetamide] | 75 | 3090 | 135 | 651
6 | COc1ccccc1-c1ccn2ncc(-c3ccc(C(N)=O)cc3)c2n1 [Example 179, 4-[5-(2-Methoxy-phenyl)-pyrazolo[1,5-a]pyrimidin-3-yl]-benzamide] | 3900 | 2920 | 448 | > 9100
7 | CCN(CC)CCn1cnc2cc(-c3cnc4ccc(-c5cnc(N)c(C(F)(F)F)c5)nn34)cnc21 [Example 149, 5-{3-[3-(2-Diethyl-amino-ethyl)-3H-imidazo [4,5-b]pyridin-6-yl]-imidazo [1,2-b]pyridazin-6-yl}-3-trifluoro-methyl-pyridin-2-ylamine] | 19 | 404 | 14 | 40
8 | Nc1ncc(-c2ccc3ncc(-c4ccc(C(=O)N5CCN(Cc6cccnc6)CC5)cc4)n3n2)cc1C(F)(F)F [Example 127, {4-[6-(6-Amino-5-trifluoro-methyl-pyridin-3-yl)-imidazo [1,2-b]pyridazin-3-yl]-phenyl}-(4-pyridin-3-ylmethyl-piperazin-1-yl)-methanone] | 19 | 1050 | 59 | 416
9 | Nc1ncc(-c2ccc3ncc(-c4ccc(S(N)(=O)=O)cc4)n3n2)cc1C(F)(F)F [Example 121, 4-[6-(6-Amino-5-trifluoro-methyl-pyridin-3-yl)-imidazo [1,2-b]pyridazin-3-yl]-benzene-sulfon-amide] | 24 | 3310 | 26 | 19
10 | COc1ccc(-c2ccc3ncc(-c4cncc(C(F)(F)F)c4)n3n2)cc1OC [Example 53, 6-(3,4-Di-methoxy-phenyl)-3-(5-trifluoro-methyl-pyridin-3-yl)-imidazo [1,2-b] pyridazine] | 275 | 1080 | 401 | 1240
11 | Nc1ncc(-c2ccc3ncc(-c4ccc(C(=O)N5CCN(Cc6ccncc6)CC5)cc4)n3n2)cc1C(F)(F)F [Example 136, {4-[6-(6-Amino-5-trifluoro-methyl-pyridin-3-yl)-imidazo [1,2-b]pyridazin-3-yl]-phenyl}-(4-pyridin-4-ylmethyl-piperazin-1-yl)-methanone] | 36 | 1530 | 52 | 1200
12 | COc1cc(-c2cnc3ccc(-c4cnc(N)c(C(F)(F)F)c4)nn23)ccc1C(=O)N1CCN(Cc2cccnc2)CC1 [Example 117, {4-[6-(6-Amino-5-trifluoro-methyl-pyridin-3-yl)-imidazo [1,2-b]pyridazin-3-yl]-2-methoxy-phenyl}-(4-pyridin-3-ylmethyl-piperazin-1-yl)-methanone] | 9 | 446 | 10 | 217
13 | COc1cc(-c2ccc3ncc(-c4cnc(N)c(C(F)(F)F)c4)n3n2)ccc1OC1CCNCC1 [Example 166, 5-{6-(3-Methoxy-4-(piperidin-4-yloxy)-phenyl]-imidazo [1,2-b]pyridazin-3-yl}-3-trifluoro-methyl-pyridin-2-ylamine] | 50 | 556 | 41 | 204
14 | Nc1ncc(-c2ccc3ncc(-c4ccc(S(=O)(=O)CCN5CCOCC5)cc4)n3n2)cc1C(F)(F)F [Example 105, 5-{3-[4-(2-Morpholin-4-yl-ethane-sulfonyl)-phenyl]-imidazo [1,2-b]pyridazin-6-yl}-3-trifluoro-methyl-pyridin-2-ylamine] | 24 | 362 | 18 | 463
15 | O=C1CCCN1CCOc1ccc(-c2ccc3ncc(-c4cnc5[nH]ccc5c4)n3n2)cc1F [Example 96, 1-(2-{2-Fluoro-4-[3-(1H-pyrrolo [2,3-b]pyridin-5-yl)-imidazo [1,2-b]pyridazin-6-yl]-phenoxy)-ethyl)-pyrrolidin-2-one] | 501 | 7660 | 1090 | 4710
16 | COc1ccc(-c2ccc3ncc(-c4ccc(N)nc4)n3n2)cc1OC [Example 34, 5-[6-(3,4-Dimethoxy-phenyl)-imidazo [1,2-b]pyridazin-3-yl]-pyridin-2-ylamine] | 103 | 1310 | 143 | 718
17 | Nc1ncc(-c2ccc3ncc(-c4ccc(C(=O)NCCCN5CCOCC5)cc4F)n3n2)cc1C(F)(F)F [Example 152, 4-[6-(6-Amino-5-trifluoro-methyl-pyridin-3-yl)-imidazo [1,2-b]pyridazin-3-yl]-3-fluoro-N-(3-morpholin-4-yl-propyl)-benzamide] | 9 | 485 | 13 | 40
